# Measured values published in patent US20070048372A1, “Method for treating non-inflammatory osteoarthritic pain” (SRZ Properties, Inc., priority 2005, published 2007).
# “Also recorded” adds a separate entry of the source.
# Assays:
# [1] = test system: monosodium iodoacetate-induced tactile allodynia; test: Monosodium iodoacetate-induced tactile allodynia (von Frey filaments); type: in vivo, rat (Wistar)
# [2] = test system: biceps muscle grip strength after TNF-induced muscle pain; test: Biceps muscle grip strength after TNF-induced muscle pain; type: in vivo, rat (Sprague Dawley); details: for reversal of TNF-induced reduction of grip strength: 6 h after TNF i.m., 30 to 60 minutes after drug
# Description: (§1) Adult male Sprague Dawley rats with a body weight of 250 g to 300 g were used (supplier: Charles River, Sulzfeld, Germany). Animals were group-housed (3 animals per cage) and maintained in a room with controlled temperature (21-22° C.) and a reversed light-dark cycle (12 h/12 h) with food and water available ad libitum. All experiments were approved by the Bavarian State animal experimentation committee and carried out in accordance with its regulations.
# (§2) Recombinant rat tumor necrosis factor alpha (herein referred to as TNF) was obtained from R&D Systems, Minneapolis, Minn., U.S.A. TNF was diluted in 0.9% NaCl and used in a concentration of 1 μg in 50 μl. Injections were performed in short halothane narcosis with a 30 g needle bilaterally into the gastrocnemius or into the biceps brachii muscle. All rats were used to the behavioral tests before injections and baseline values were recorded over three test days.
# Grip strength of the forelimbs was tested with a digital grip force meter (DFIS series, Chatillon, Greensboro, NC, U.S.A.). The rat was positioned to grab the grid with the forelimbs and was gently pulled so that the grip strength could be recorded. Means of three trials were calculated. The effect of the TNF treatment was calculated for each animal separately and only animals with a significant TNF effect were included for further analysis.
# Rats were injected with TNF into the biceps brachii muscle at 8 am. Six hours later, grip strength of the forelimbs was tested with a digital grip force meter. Test drug was administered, and grip strength was again tested after 30 to 60 minutes.
# (§3) The rats, initially 10 per group, were treated with either 3, 10 or 30 mg/kg lacosamide, 2 mg/kg metamizol, 30 or 100 mg/kg pregabalin, 100 mg/kg gabapentin, or the NaCl vehicle, i.p. (intraperitoneally). Volume of i.p. injections was 0.5 ml. A pilot study was performed to confirm that i.m. (intramuscular) injection of 1 μg TNF into the gastrocnemius muscle was sufficient to induce pressure hyperalgesia.
# (§4) Data are shown in graphs displaying means and standard errors of the means (SEM). Pre- and post-treatment data were compared using ANOVA (analysis of variance) and a Tukey post hoc test. Means of treatment groups were compared using a one-way ANOVA and Dunnett's post hoc test. Maximal possible effects (MPE) were calculated for all types of treatment.
# [3] = test system: monosodium iodoacetate-induced mechanical hyperalgesia; test: Monosodium iodoacetate-induced mechanical hyperalgesia (Randall-Selitto paw pressure); type: in vivo, rat (Wistar)
# [4] = test system: muscle pressure hyperalgesia induced by TNF; test: TNF-induced muscle pressure hyperalgesia (Randall-Selitto, withdrawal threshold to muscle pressure); type: in vivo, rat (Sprague Dawley); details: for reversal of muscular mechanical hyperalgesia (withdrawal threshold to muscle pressure): 18 h after TNF i.m., 30 to 60 minutes after drug
# Description: as §1, §2
# Mechanical withdrawal thresholds to muscle pressure were measured with an analgesimeter (Ugo Basile, Comerio, Italy). The rat was allowed to crawl into a sock which helps the rat to relax. The hind limbs were positioned such that an increasing pressure could be applied onto the gastrocnemius muscle (maximum 250 g). The pressure needed to elicit withdrawal was recorded. Means of 3 trials for each hind limb were calculated (interstimulus interval of >30 sec). Only animals with a significant TNF effect were included for further analysis.
# Rats were injected with TNF into the gastrocnemius muscle at 2 pm. Eighteen hours later, rats were tested for pressure hyperalgesia pre- and post-administration of the test drug. Rats were tested for pressure hyperalgesia 30 to 60 minutes after drug administration.
# as §3, §4
# [5] = test system: rat formalin paw test (late phase); test: Rat formalin paw test (late phase): number of flinches and licking time; type: in vivo, rat (Rj: Wistar (Han))
# Description: Rats were given an intraplantar injection of 5% formalin (50 μl) into the posterior left paw. This treatment induces a recognizable flinching and licking response of the affected paw in control animals. The number of flinches was counted for 15 minutes, beginning 20 minutes after injection of formalin. The time spent licking the affected paw was also recorded.
# Male Rj: Wistar (Han) rats, 10 per group, weighing 100-130 g at the beginning of the experiments were studied per group. The test was performed blind.
# Lacosamide (20 mg/kg), gabapentin (50 and 100 mg/kg), combinations of lacosamide (20 mg/kg) with gabapentin (50 and 100 mg/kg), and vehicle were administered i.p. 10 minutes before injection of formalin.
# Lacosamide (10 and 20 mg/kg), morphine (2 and 4 mg/kg), combinations of lacosamide (10 and 20 mg/kg) with morphine (2 and 4 mg/kg), and vehicle were administered i.p. 10 minutes before injection of formalin.
# Lacosamide (10 mg/kg), duloxetine (8 mg/kg), a combination of lacosamide (10 mg/kg) with duloxetine (8 mg/kg), and vehicle were administered i.p. 10 minutes before injection of formalin.
# Lacosamide (10 and 20 mg/kg), memantine (4 and 8 mg/kg), combinations of lacosamide (10 and 20 mg/kg) with memantine (4 and 8 mg/kg), and vehicle were administered i.p. 10 minutes before injection of formalin.
# Lacosamide (10 and 20 mg/kg), naproxen (8 and 16 mg/kg), combinations of lacosamide (10 and 20 mg/kg) with […] (8 and 16 mg/kg), and vehicle were administered i.p. 10 minutes before injection of formalin. Morphine (8 mg/kg) was included as a comparative treatment.
compound,measurement,setting,value
"COC[C@@H](NC(C)=O)C(=O)NCc1ccccc1 [Lacosamide, (R)-2-acetamido-N-benzyl-3-methoxypropionamide]",tactile allodynia of iodoacetate-treated rats (von Frey),"[1]; day 3, 30 mg/kg p.o., 60 minutes before test",improved tactile allodynia
same,tactile allodynia of iodoacetate-treated rats (von Frey),"[1]; day 7, 30 mg/kg p.o., 60 minutes before test",improved tactile allodynia
same,tactile allodynia of iodoacetate-treated rats (von Frey),"[1]; day 14, 30 mg/kg p.o., 60 minutes before test",not on day 14
same,tactile allodynia of iodoacetate-treated rats (von Frey),[1]; lower doses (3 and 10 mg/kg p.o.),showed a trend for such improvement
same,"MPE (maximal possible effect) on biceps muscle grip strength, compared with vehicle",[2]; 10 mg/kg i.p.,significantly different from vehicle
same,reversal of TNF-induced reduction of grip strength,[2]; 10 mg/kg i.p.,significant reversal; also recorded: reversed the effect of TNF on the muscle
same,"MPE (maximal possible effect) on biceps muscle grip strength, compared with vehicle",[2]; 30 mg/kg i.p.,significantly different from vehicle
same,reversal of TNF-induced reduction of grip strength,[2]; 30 mg/kg i.p.,significant reversal
same,paw pressure withdrawal threshold compared to iodoacetate/vehicle treated animals (mechanical hyperalgesia),"[3]; day 3, 3 mg/kg p.o.",increase in paw pressure withdrawal threshold
same,mechanical hyperalgesia (paw pressure withdrawal threshold),"[3]; day 7, 3 mg/kg p.o.",reduced mechanical hyperalgesia
same,mechanical hyperalgesia (paw pressure withdrawal threshold),"[3]; day 7, 10 mg/kg p.o.",reduced mechanical hyperalgesia
same,mechanical hyperalgesia (paw pressure withdrawal threshold),"[3]; day 7, 30 mg/kg p.o.",reduced mechanical hyperalgesia
same,mechanical hyperalgesia (paw pressure withdrawal threshold),"[3]; day 14, 10 mg/kg p.o.",did not show a statistically significant effect
same,mechanical hyperalgesia during the post-inflammatory period,"[3]; p.o., overall conclusion",inhibited mechanical hyperalgesia
same,"MPE (maximal possible effect) on muscle pressure hyperalgesia, compared with vehicle",[4]; 10 mg/kg i.p.,significantly different from vehicle
same,"MPE (maximal possible effect) on muscle pressure hyperalgesia, compared with vehicle",[4]; 30 mg/kg i.p.,significantly different from vehicle
same,reversal of muscular mechanical hyperalgesia (withdrawal threshold to muscle pressure),[4]; 30 mg/kg i.p.,full reversal
same,reversal of muscular mechanical hyperalgesia (withdrawal threshold to muscle pressure),"[4]; 30 mg/kg i.p., listed as lacosamide",complete reversal
same,"muscle hyperalgesia induced by TNF injection in the paw pressure test, dose dependence","[4]; 3, 10 and 30 mg/kg i.p.",dose-dependently improved
same,Licking time % change (a) compared with vehicle control,"[5]; Example 3, 20 mg/kg i.p. alone",−34% (a)
same,Licking time (seconds) mean ± SEM,"[5]; Example 3, 20 mg/kg i.p. alone",146.9 ± 23.8 NS (a) seconds
same,No. of flinches % change (a) compared with vehicle control,"[5]; Example 3, 20 mg/kg i.p. alone",−33% (a)
same,No. of flinches mean ± SEM,"[5]; Example 3, 20 mg/kg i.p. alone",85.7 ± 14.3 NS (a)
same,decrease of the number of flinches as compared with vehicle controls,"[5]; Example 3, 20 mg/kg i.p. alone",33%
same,decrease of the time spent licking as compared with vehicle controls,"[5]; Example 3, 20 mg/kg i.p. alone",34%
same,Licking time % change (a) compared with vehicle control,"[5]; Example 4, 10 mg/kg i.p. alone",−28% (a)
same,Licking time (seconds) mean ± SEM,"[5]; Example 4, 10 mg/kg i.p. alone",210.1 ± 22.7 (a) seconds
same,No. of flinches % change (a) compared with vehicle control,"[5]; Example 4, 10 mg/kg i.p. alone",+22% (a)
same,No. of flinches mean ± SEM,"[5]; Example 4, 10 mg/kg i.p. alone",182.7 ± 25.9 NS (a)
same,decrease of the time spent licking as compared with vehicle controls,"[5]; Example 4, 10 mg/kg i.p. alone",28%
same,increase of the number of flinches as compared with vehicle controls,"[5]; Example 4, 10 mg/kg i.p. alone",22%
same,Licking time % change (a) compared with vehicle control,"[5]; Example 4, 20 mg/kg i.p. alone",−56% (a)
same,Licking time (seconds) mean ± SEM,"[5]; Example 4, 20 mg/kg i.p. alone",128.2 ± 28.0 (a) seconds
same,No. of flinches % change (a) compared with vehicle control,"[5]; Example 4, 20 mg/kg i.p. alone",−35% (a)
same,No. of flinches mean ± SEM,"[5]; Example 4, 20 mg/kg i.p. alone",97.2 ± 16.0 NS (a)
same,decrease of the number of flinches as compared with vehicle controls,"[5]; Example 4, 20 mg/kg i.p. alone",35%
same,decrease of the time spent licking as compared with vehicle controls,"[5]; Example 4, 20 mg/kg i.p. alone",56%
same,Licking time % change (a) compared with vehicle control,"[5]; Example 5, 10 mg/kg i.p. alone",−30% (a)
same,Licking time (seconds) mean ± SEM,"[5]; Example 5, 10 mg/kg i.p. alone",185.2 ± 31.7 NS (a) seconds
same,No. of flinches % change (a) compared with vehicle control,"[5]; Example 5, 10 mg/kg i.p. alone",+5% (a)
same,No. of flinches mean ± SEM,"[5]; Example 5, 10 mg/kg i.p. alone",158.2 ± 15.6 NS (a)
same,decrease of the time spent licking as compared with vehicle controls,"[5]; Example 5, 10 mg/kg i.p. alone",30%
same,effects on the number of flinches and the time spent licking,"[5]; Example 5, 10 mg/kg i.p. alone",had no significant effects
same,Licking time % change (a) compared with vehicle control,"[5]; Example 6, 10 mg/kg i.p. alone",−4% (a)
same,Licking time (seconds) mean ± SEM,"[5]; Example 6, 10 mg/kg i.p. alone",168.5 ± 23.9 NS (a) seconds
same,No. of flinches % change (a) compared with vehicle control,"[5]; Example 6, 10 mg/kg i.p. alone",−31% (a)
same,No. of flinches mean ± SEM,"[5]; Example 6, 10 mg/kg i.p. alone",113.9 ± 23.2 NS (a)
same,decrease of the number of flinches as compared with vehicle controls,"[5]; Example 6, 10 mg/kg i.p. alone",31%
same,effect on the time spent licking as compared with vehicle controls,"[5]; Example 6, 10 mg/kg i.p. alone",had no clear effects
same,Licking time % change (a) compared with vehicle control,"[5]; Example 6, 20 mg/kg i.p. alone",−52% (a)
same,Licking time (seconds) mean ± SEM,"[5]; Example 6, 20 mg/kg i.p. alone",85.1 ± 19.1 (a) seconds
same,No. of flinches % change (a) compared with vehicle control,"[5]; Example 6, 20 mg/kg i.p. alone",−48% (a)
same,No. of flinches mean ± SEM,"[5]; Example 6, 20 mg/kg i.p. alone",85.8 ± 14.4 (a)
same,decrease of the number of flinches as compared with vehicle controls,"[5]; Example 6, 20 mg/kg i.p. alone",48%
same,decrease of the time spent licking as compared with vehicle controls,"[5]; Example 6, 20 mg/kg i.p. alone",52%
same,Licking time % change (a) compared with vehicle control,"[5]; Example 7, 10 mg/kg i.p. alone",−9% (a)
same,Licking time (seconds) mean ± SEM,"[5]; Example 7, 10 mg/kg i.p. alone",174.7 ± 20.4 NS (a) seconds
same,No. of flinches % change (a) compared with vehicle control,"[5]; Example 7, 10 mg/kg i.p. alone",−13% (a)
same,No. of flinches mean ± SEM,"[5]; Example 7, 10 mg/kg i.p. alone",99.2 ± 16.6 NS (a)
same,effect on the time spent licking as compared with vehicle controls,"[5]; Example 7, 10 mg/kg i.p. alone",had no clear effects
same,Licking time % change (a) compared with vehicle control,"[5]; Example 7, 20 mg/kg i.p. alone",−59% (a)
same,Licking time (seconds) mean ± SEM,"[5]; Example 7, 20 mg/kg i.p. alone",78.9 ± 20.4 ***(a) seconds
same,No. of flinches % change (a) compared with vehicle control,"[5]; Example 7, 20 mg/kg i.p. alone",−12% (a)
same,No. of flinches mean ± SEM,"[5]; Example 7, 20 mg/kg i.p. alone",100.3 ± 22.3 NS (a)
same,decrease of the time spent licking as compared with vehicle controls,"[5]; Example 7, 20 mg/kg i.p. alone",59%
same,effect on the number of flinches as compared with vehicle controls,"[5]; Example 7, 10 and 20 mg/kg i.p. alone",did not clearly affect
